Reference: ChEMBL document CHEMBL2034840, “Automated generation of turn mimetics: proof of concept study for the MC4 receptor” (Bioorg Med Chem, 2012)

Biological target: Melanocortin receptor 4 (Homo sapiens, UniProt P32245)
Experiment: Displacement of [125I]NDPMSH from human MC4 receptor expressed in HEK293 cells after 2 hrs by liquid scintillation counting
Type: cell-based

Melanocortin receptor 4, sequence (P32245 whole entry): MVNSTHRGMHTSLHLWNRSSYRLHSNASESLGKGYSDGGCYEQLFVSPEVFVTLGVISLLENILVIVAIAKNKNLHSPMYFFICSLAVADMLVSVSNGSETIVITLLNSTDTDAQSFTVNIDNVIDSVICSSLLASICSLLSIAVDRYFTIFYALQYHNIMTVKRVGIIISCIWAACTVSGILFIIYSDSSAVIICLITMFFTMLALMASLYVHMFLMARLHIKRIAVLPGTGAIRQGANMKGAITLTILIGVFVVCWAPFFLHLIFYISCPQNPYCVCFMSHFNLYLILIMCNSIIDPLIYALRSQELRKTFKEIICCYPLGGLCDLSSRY

Row | Compound | Ki [nM] | Ki (hek293) [nM]
1 | O=C(NCCc1ccccc1)[C@H]1CN(CC2CC2)C[C@H]1C(=O)NC1CCN(Cc2ccccc2)C1 (mixture of isomers) | 2600 | 
2 | O=C(NCc1cccc(Cl)c1)[C@H]1CN(CC2CC2)C[C@H]1C(=O)NC1CCN(Cc2ccccc2)C1 (mixture of isomers) | 400 | 
3 | O=C(NCCc1ccccc1)[C@H]1CN(CCOc2ccccc2)C[C@H]1C(=O)NC1CCN(Cc2ccccc2)C1 (mixture of isomers) | 1000 | 
4 | O=C(NCCc1ccc(Cl)cc1)[C@H]1CN(CC2CC2)C[C@H]1C(=O)NC1CCN(Cc2ccccc2)C1 (mixture of isomers) | 380 | 
5 | O=C(NCc1ccccc1)[C@@H]1CNC[C@H]1C(=O)Nc1cccc(-c2ccccc2)c1 | 6600 | 
6 | O=C(NCCc1ccccc1)[C@H]1CN(CCO)C[C@H]1C(=O)NC1CCN(Cc2ccccc2)C1 (mixture of isomers) | 6200 | 
7 | O=C(CNC(=O)[C@H]1CNC[C@H]1C(=O)NCCc1c[nH]c2ccccc12)c1ccccc1 | 5500 | 
8 | O=C(NCc1ccc(Cl)cc1Cl)[C@H]1CN(CC2CC2)C[C@H]1C(=O)NC1CCN(Cc2ccccc2)C1 (mixture of isomers) | 70 | 
9 | O=C(NCc1ccccc1)[C@@H]1CNC[C@H]1C(=O)NCc1ccccc1 | 900 | 
10 | O=C(NCCc1ccccc1)[C@H]1CNC[C@H]1C(=O)NC1CCN(Cc2ccccc2)C1 (mixture of isomers) |  | 5000

Now from value to compound:

Row | Ki [nM] | Ki (hek293) [nM] | Compound
11 | 160 |  | O=C(NCCc1ccc(Cl)cc1Cl)[C@H]1CN(CC2CC2)C[C@H]1C(=O)NC1CCN(Cc2ccccc2)C1 (mixture of isomers)
12 | 670 |  | O=C(NCCc1cccc(Cl)c1)[C@H]1CN(CC2CC2)C[C@H]1C(=O)NC1CCN(Cc2ccccc2)C1 (mixture of isomers)
13 | 1800 |  | O=C(NCCc1cccc(F)c1)[C@H]1CN(CC2CC2)C[C@H]1C(=O)NC1CCN(Cc2ccccc2)C1 (mixture of isomers)
14 | 5500 |  | O=C(NCc1ccccc1)[C@H]1CNC[C@H]1C(=O)NCCc1c[nH]c2ccccc12
15 | 1000 |  | O=C(NCCc1ccccc1)[C@@H]1CNC[C@H]1C(=O)NCc1ccccc1
16 | 5800 |  | O=C(NCCCc1ccccc1)[C@H]1CNC[C@H]1C(=O)NCc1ccc(C(F)(F)F)cc1
17 | 5300 |  | NCCNC(=O)[C@@H]1CNC[C@H]1C(=O)NC(=O)c1ccccc1
18 | 5000 |  | O=C(NCCc1ccccc1)[C@H]1CNC[C@H]1C(=O)NC1CCN(Cc2ccccc2)C1 (stereo in doubt; 3a)
